# Assay results: PMC4887296 (Biochemistry, 2016)
# Read-outs that look alike come from different tables or passages of the source.
# What was measured:
# wild-type ypFabV [1] = target: T1, wild-type ypFabV (Yersinia pestis, UniProt Q8Z9U1); type: biochemical
# Wt ypFabV = Wt ypFabV (Yersinia pestis, UniProt Q8Z9U1); assay: biochemical; type: binding
# wild-type ypFabV [2] = target: T1, wild-type ypFabV; type: biochemical; remark: listed apart in the source
# T1 sequence (Q8Z9U1 whole entry, looked up): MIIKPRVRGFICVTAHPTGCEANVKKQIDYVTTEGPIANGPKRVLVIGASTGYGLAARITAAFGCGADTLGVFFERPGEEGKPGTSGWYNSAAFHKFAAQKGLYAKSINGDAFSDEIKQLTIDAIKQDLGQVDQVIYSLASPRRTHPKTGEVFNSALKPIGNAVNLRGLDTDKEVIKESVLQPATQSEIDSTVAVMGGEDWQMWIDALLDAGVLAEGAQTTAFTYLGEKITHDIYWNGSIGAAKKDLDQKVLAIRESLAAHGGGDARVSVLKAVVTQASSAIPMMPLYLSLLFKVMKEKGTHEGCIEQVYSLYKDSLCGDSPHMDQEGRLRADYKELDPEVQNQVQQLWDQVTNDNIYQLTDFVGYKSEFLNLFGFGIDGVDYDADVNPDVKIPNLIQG
# Wt ypFabV, sequence (Q8Z9U1 whole entry, looked up): as above
SMILES,Km (wild-type ypFabV [1]; read-out: KM (global fit)) [µM],"product inhibition pattern with respect to NADH, wild-type ypFabV (wild-type ypFabV [2])","product inhibition pattern with respect to ddCoA, wild-type ypFabV (wild-type ypFabV [2])","kcat, wild-type ypFabV (wild-type ypFabV [1]) [s⁻¹]","Km (wild-type ypFabV [1]; read-out: KM, wild-type ypFabV) [µM]",further results
NC(=O)C1=CN([C@@H]2O[C@H](COP(=O)(O)OP(=O)(O)OC[C@H]3O[C@@H](n4cnc5c(N)ncnc54)[C@H](O)[C@@H]3O)[C@@H](O)[C@H]2O)C=CC1 [NADH],10 ± 1,,,,,"Ki (wild-type ypFabV [1]; read-out: Ki, NADH): 22 ± 3 µM; Kd (Wt ypFabV; read-out: Kd Wt ypFabV, pH 8): 13 ± 1 µM"
NC(=O)c1ccc[n+]([C@@H]2O[C@H](COP(=O)([O-])OP(=O)(O)OC[C@H]3O[C@@H](n4cnc5c(N)ncnc54)[C@H](O)[C@@H]3O)[C@@H](O)[C@H]2O)c1 [NAD^+],,competitive,noncompetitive,,,
"CCCCCCCCC/C=C/C(=O)SCCNC(=O)CCNC(=O)[C@H](O)C(C)(C)COP(=O)(O)OP(=O)(O)OC[C@H]1O[C@@H](n2cnc3c(N)ncnc32)[C@H](O)[C@@H]1OP(=O)(O)O [ddCoA, trans-2-dodecenoyl-CoA]",19 ± 1,,,91.13 ± 7.1,14 ± 1,kcat (global fit) (wild-type ypFabV [1]): 97.67 ± 6.47 s⁻¹; Kd (Wt ypFabV): 13 ± 1 µM
"CCCCCCCCCCCC(=O)SCCNC(=O)CCNC(=O)[C@H](O)C(C)(C)COP(=O)(O)OP(=O)(O)OC[C@H]1O[C@@H](n2cnc3c(N)ncnc32)[C@H](O)[C@@H]1OP(=O)(O)O [lauroyl-CoA, Lauroyl-CoA]",,noncompetitive,noncompetitive,,,
CCCCCCC/C=C/C(=O)SCCNC(=O)CCNC(=O)[C@H](O)C(C)(C)COP(=O)(O)OP(=O)(O)OC[C@H]1O[C@@H](n2cnc3c(N)ncnc32)[C@H](O)[C@@H]1OP(=O)(O)O [trans-2-decenoyl-CoA],,,,5.53 ± 0.333,23 ± 3,
CCCCC/C=C/C(=O)SCCNC(=O)CCNC(=O)[C@H](O)C(C)(C)COP(=O)(O)OP(=O)(O)OC[C@H]1O[C@@H](n2cnc3c(N)ncnc32)[C@H](O)[C@@H]1OP(=O)(O)O [trans-2-octenoyl-CoA],,,,0.267 ± 0.017,7 ± 1,
